Assay results as given in patent US20260356856A1, “KRAS G12S AND G12C INHIBITORS” (MIRATI THERAPEUTICS, INC., priority 2023, published 2026).

Columns and labels:
Experiment in all cases: KRas binding assay, TR-FRET displacement of Cy5 labelled tracer
Details in all cases: 60-minute incubation at room temperature, 1% DMSO, pH 7.5
KRas G12C = target: T1, KRas G12C (Homo sapiens, UniProt P01116, G12C)
T1 construct: Biotinylated KRas (corresponding to amino acids 1-169, produced at Accelegan Inc.); biotin (biotinylated); purchased Accelegan Inc
T1 sequence (P01116 1-169 isoform P01116-2 G12C): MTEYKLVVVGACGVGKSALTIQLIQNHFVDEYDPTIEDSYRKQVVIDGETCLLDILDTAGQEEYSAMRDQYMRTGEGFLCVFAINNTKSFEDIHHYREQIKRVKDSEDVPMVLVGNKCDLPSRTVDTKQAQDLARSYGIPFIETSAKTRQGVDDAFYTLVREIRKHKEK
Method: (§1) This Example illustrates that exemplary compounds of the present invention bind to KRas and are capable of displacing a labeled tracer ligand occupying the KRas binding site. KRas^WT, KRas^G12A, KRas^G12C, KRas^G12D, KRas^G12R, KRas^G12S, KRas^G12V, KRas^G13D, or KRas^Q61H was used in the assay.
(§2) The ability of a compound to bind to KRas was measured using a TR-FRET displacement assay. Biotinylated KRas (corresponding to amino acids 1-169, produced at Accelegan Inc.) was incubated with custom made Cy5 labelled tracer, terbium streptavidin (Cisbio Inc.) and compound (1% DMSO final) in buffer (50 mM HEPES, pH 7.5, 5 mM MgCl2, 0.005% Tween-20 and 1 mM DTT). After a 60-minute incubation at room temperature, the reaction was measured using a BMG LABTECH CLARIO star Plus via TR-FRET. […] The POC values were fit to a 4-parameter IC50 equation and the IC50 value reported.

KRas G12S = target: T2, KRas G12S (Homo sapiens, UniProt P01116, G12S)
T2 construct: Biotinylated KRas (corresponding to amino acids 1-169, produced at Accelegan Inc.); biotin (biotinylated); purchased Accelegan Inc
T2 sequence (P01116 1-169 isoform P01116-2 G12S): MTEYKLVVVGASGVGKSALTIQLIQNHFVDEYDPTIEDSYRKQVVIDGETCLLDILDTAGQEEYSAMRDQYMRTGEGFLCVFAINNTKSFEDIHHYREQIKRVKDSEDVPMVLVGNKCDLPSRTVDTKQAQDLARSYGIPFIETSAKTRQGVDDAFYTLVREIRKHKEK
Method: as §1, §2

KRas WT = target: T3, KRas WT (Homo sapiens, UniProt P01116)
T3 construct: Biotinylated KRas (corresponding to amino acids 1-169, produced at Accelegan Inc.); biotin (biotinylated); purchased Accelegan Inc
T3 sequence (P01116 1-169 isoform P01116-2): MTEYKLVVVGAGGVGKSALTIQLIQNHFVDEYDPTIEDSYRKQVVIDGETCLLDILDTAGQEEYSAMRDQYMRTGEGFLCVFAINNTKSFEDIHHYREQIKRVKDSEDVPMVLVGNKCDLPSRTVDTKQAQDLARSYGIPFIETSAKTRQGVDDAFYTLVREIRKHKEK
Method: as §1, §2

| Compound | IC50 (KRas G12C) [nM] | IC50 (KRas G12S) [nM] | IC50 (KRas WT) [nM] |
| --- | --- | --- | --- |
| O=C(C1CCN(c2nc(OCC34CCCN3CCC4)nc3c(F)c(-c4cccc5cccc(F)c45)ncc23)CC1)n1cccn1 [Example 11, (1-(8-fluoro-7-(8-fluoronaphthalen-1-yl)-2-((tetrahydro-1H-pyrrolizin-7a(5H)-yl)methoxy)pyrido[4,3-d]pyrimidin-4-yl)piperidin-4-yl)(1H-pyrazol-1-yl)methanone] | 8160 | 3840 | 9270 |
| O=C(Oc1ccc(F)cc1)[C@@H]1[C@@H]2C[C@H]1CN(c1nc(OCC34CCCN3CCC4)nc3c(F)c(-c4cccc5cccc(F)c45)ncc13)C2 [Example 7, 4-fluorophenyl (1R,5S,6r)-3-(8-fluoro-7-(8-fluoronaphthalen-1-yl)-2-((tetrahydro-1H-pyrrolizin-7a(5H)-yl)methoxy)pyrido[4,3-d]pyrimidin-4-yl)-3-azabicyclo[3.1.1]heptane-6-carboxylate] | 20400 | 21200 | 24200 |
| COC(=O)[C@@H]1CCN(c2nc(OCC34CCCN3CCC4)nc3c(F)c(-c4cccc5cccc(F)c45)ncc23)C[C@@H]1O [Example 47, methyl (3R,4R)-1-(8-fluoro-7-(8-fluoronaphthalen-1-yl)-2-((tetrahydro-1H-pyrrolizin-7a(5H)-yl)methoxy)pyrido[4,3-d]pyrimidin-4-yl)-3-hydroxypiperidine-4-carboxylate] | > 100000 | > 100000 | > 100000 |
| O=C(Oc1c(F)cc(F)cc1F)C1CCN(c2nc(OCC34CCCN3CCC4)nc3c(F)c(-c4cccc5cccc(F)c45)ncc23)CC1 [Example 12, 2,4,6-trifluorophenyl 1-(8-fluoro-7-(8-fluoronaphthalen-1-yl)-2-((tetrahydro-1H-pyrrolizin-7a(5H)-yl)methoxy)pyrido[4,3-d]pyrimidin-4-yl)piperidine-4-carboxylate] | 808 | 59600 | 48500 |
| N#Cc1ccc(OC(=O)[C@@H]2[C@@H]3CC[C@H]2CN(c2nc(OCC45CCCN4CCC5)nc4c(F)c(-c5cccc6cccc(F)c56)ncc24)C3)cc1 [Example 20, 4-cyanophenyl (1R,5S,8r)-3-(8-fluoro-7-(8-fluoronaphthalen-1-yl)-2-((tetrahydro-1H-pyrrolizin-7a(5H)-yl)methoxy)pyrido[4,3-d]pyrimidin-4-yl)-3-azabicyclo[3.2.1]octane-8-carboxylate] | 27300 | 98800 | 14700 |
| O=C(Oc1ccc(C(F)(F)F)cc1)C1CCN(c2nc(OCC34CCCN3CCC4)nc3c(F)c(-c4cccc5cccc(F)c45)ncc23)CC1 [Example 42, 4-(trifluoromethyl)phenyl 1-(8-fluoro-7-(8-fluoronaphthalen-1-yl)-2-((tetrahydro-1H-pyrrolizin-7a(5H)-yl)methoxy)pyrido[4,3-d]pyrimidin-4-yl)piperidine-4-carboxylate] | 768 | 68100 | > 100000 |
| N#Cc1ccc(OC(=O)C2CCN(c3nc(OCC45CCCN4CCC5)nc4c(F)c(-c5cccc6cccc(F)c56)ncc34)CC2)cc1 [Example 29, 4-cyanophenyl 1-(8-fluoro-7-(8-fluoronaphthalen-1-yl)-2-((tetrahydro-1H-pyrrolizin-7a(5H)-yl)methoxy)pyrido[4,3-d]pyrimidin-4-yl)piperidine-4-carboxylate] | 201 | > 100000 | 90500 |
| O=C(Oc1ccc(F)c(F)c1)C1CCN(c2nc(OCC34CCCN3CCC4)nc3c(F)c(-c4cccc5cccc(F)c45)ncc23)CC1 [Example 43, 3,4-difluorophenyl 1-(8-fluoro-7-(8-fluoronaphthalen-1-yl)-2-((tetrahydro-1H-pyrrolizin-7a(5H)-yl)methoxy)pyrido[4,3-d]pyrimidin-4-yl)piperidine-4-carboxylate] | 424 | 42100 | > 100000 |
| O=C(Oc1c(F)cccc1F)C1CCN(c2nc(OCC34CCCN3CCC4)nc3c(F)c(-c4cccc5cccc(F)c45)ncc23)CC1 [Example 30, 2,6-difluorophenyl 1-(8-fluoro-7-(8-fluoronaphthalen-1-yl)-2-((tetrahydro-1H-pyrrolizin-7a(5H)-yl)methoxy)pyrido[4,3-d]pyrimidin-4-yl)piperidine-4-carboxylate] | 194 | 32800 | > 100000 |
| COC(=O)[C@H]1CCN(c2nc(OCC34CCCN3CCC4)nc3c(F)c(-c4cccc5cccc(F)c45)ncc23)C[C@H]1O [Example 46, methyl (3S,4S)-1-(8-fluoro-7-(8-fluoronaphthalen-1-yl)-2-((tetrahydro-1H-pyrrolizin-7a(5H)-yl)methoxy)pyrido[4,3-d]pyrimidin-4-yl)-3-hydroxypiperidine-4-carboxylate] | > 100000 | > 100000 | > 100000 |
| Cc1ccn(C(=O)C2CCN(c3nc(OCC45CCCN4CCC5)nc4c(F)c(-c5cccc6cccc(F)c56)ncc34)CC2)n1 [Example 10, (1-(8-fluoro-7-(8-fluoronaphthalen-1-yl)-2-((tetrahydro-1H-pyrrolizin-7a(5H)-yl)methoxy)pyrido[4,3-d]pyrimidin-4-yl)piperidin-4-yl)(3-methyl-1H-pyrazol-1-yl)methanone] | 19600 | 4670 | 43900 |
| O=C(Oc1ccccc1F)C1CCN(c2nc(OCC34CCCN3CCC4)nc3c(F)c(-c4cccc5cccc(F)c45)ncc23)CC1 [Example 35, 2-fluorophenyl 1-(8-fluoro-7-(8-fluoronaphthalen-1-yl)-2-((tetrahydro-1H-pyrrolizin-7a(5H)-yl)methoxy)pyrido[4,3-d]pyrimidin-4-yl)piperidine-4-carboxylate] | 321 | 47500 | 92600 |
| O=C(OCC(F)(F)F)C1CCN(c2nc(OCC34CCCN3CCC4)nc3c(F)c(-c4cccc5cccc(F)c45)ncc23)CC1 [Example 31, 2,2,2-trifluoroethyl 1-(8-fluoro-7-(8-fluoronaphthalen-1-yl)-2-((tetrahydro-1H-pyrrolizin-7a(5H)-yl)methoxy)pyrido[4,3-d]pyrimidin-4-yl)piperidine-4-carboxylate] | > 100000 | > 100000 | 39400 |
| O=C(Nc1ccccn1)C1CCN(c2nc(OCC34CCCN3CCC4)nc3c(F)c(-c4cccc5cccc(F)c45)ncc23)CC1 [Example 3, 1-(8-fluoro-7-(8-fluoronaphthalen-1-yl)-2-((tetrahydro-1H-pyrrolizin-7a(5H)-yl)methoxy)pyrido[4,3-d]pyrimidin-4-yl)-N-(pyridin-2-yl)piperidine-4-carboxamide] | 582 | 346 | 649 |
| O=C(Oc1c(F)cccc1F)[C@H]1[C@@H]2C[C@H]1CN(c1nc(OCC34CCCN3CCC4)nc3c(F)c(-c4cccc5cccc(F)c45)ncc13)C2 [Example 6, 2,6-difluorophenyl (1R,5S,6s)-3-(8-fluoro-7-(8-fluoronaphthalen-1-yl)-2-((tetrahydro-1H-pyrrolizin-7a(5H)-yl)methoxy)pyrido[4,3-d]pyrimidin-4-yl)-3-azabicyclo[3.1.1]heptane-6-carboxylate] | 10600 | 7950 | 8060 |
| O=CC1CCN(c2nc(OCC34CCCN3CCC4)nc3c(F)c(-c4cccc5cccc(F)c45)ncc23)CC1 [Example 38, 1-(8-fluoro-7-(8-fluoronaphthalen-1-yl)-2-((tetrahydro-1H-pyrrolizin-7a(5H)-yl)methoxy)pyrido[4,3-d]pyrimidin-4-yl)piperidine-4-carbaldehyde] | 761 | 27900 | 19300 |
| O=C(Oc1cc(F)cc(F)c1)C1CCN(c2nc(OCC34CCCN3CCC4)nc3c(F)c(-c4cccc5cccc(F)c45)ncc23)CC1 [Example 33, 3,5-difluorophenyl 1-(8-fluoro-7-(8-fluoronaphthalen-1-yl)-2-((tetrahydro-1H-pyrrolizin-7a(5H)-yl)methoxy)pyrido[4,3-d]pyrimidin-4-yl)piperidine-4-carboxylate] | 10700 | > 100000 | > 100000 |
| COC(=O)[C@@H]1[C@@H]2CC[C@H]1CN(c1nc(OCC34CCCN3CCC4)nc3c(F)c(-c4cccc5cccc(F)c45)ncc13)C2 [Example 19, methyl (1R,5S,8s)-3-(8-fluoro-7-(8-fluoronaphthalen-1-yl)-2-((tetrahydro-1H-pyrrolizin-7a(5H)-yl)methoxy)pyrido[4,3-d]pyrimidin-4-yl)-3-azabicyclo[3.2.1]octane-8-carboxylate] | 20100 | 7460 | 2800 |
| O=C(Oc1c(F)cccc1F)[C@@H]1[C@@H]2C[C@H]1CN(c1nc(OCC34CCCN3CCC4)nc3c(F)c(-c4cccc5cccc(F)c45)ncc13)C2 [Example 5, 2,6-difluorophenyl (1R,5S,6r)-3-(8-fluoro-7-(8-fluoronaphthalen-1-yl)-2-((tetrahydro-1H-pyrrolizin-7a(5H)-yl)methoxy)pyrido[4,3-d]pyrimidin-4-yl)-3-azabicyclo[3.1.1]heptane-6-carboxylate] | 7570 | 26500 | 34400 |
